In the test the target is recombinant eIF4E (Homo sapiens (Human), UniProt P06730). The test can be described thus: Fluorescence polarization competition assay for eIF4E binding potency. The method in brief:
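Competition of test compound against 20 nM EDA-m^7GDP-ATTO-550 for 75 nM recombinant eIF4E, pre-incubated 5 min, in 20 mM Tris pH 7.5, 100 mM NaCl, 1 mM DTT, 0.02% Tween-20, 1% DMSO. Equilibrated 30 min at room temperature, dark; fluorescence polarization read. IC50 from 8-point, 3-fold dilution series.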
Background: Fluorescence polarisation rises when a labelled molecule tumbles more slowly, as on binding a larger partner.

Where [1] appears, read: inhibition of eIF4E/EDA-m7GDP-ATTO-550 binding, calculated IC50 values, Table 4B, read-out: IC50.
[2] abbreviates: fluorescence polarization competition, 75 nM recombinant eIF4E, 20 nM EDA-m7GDP-ATTO-550, IC50 class, read-out: elF4E FP.
Where [3] appears, read: inhibition of eIF4E/EDA-m7GDP-ATTO-550 binding by 50%, Table 4B calculated values, read-out: IC50.

Where two headings read alike, the source gives them in different places. Bounds are passed on as bounds.

recombinant eIF4E, sequence (P06730 whole entry): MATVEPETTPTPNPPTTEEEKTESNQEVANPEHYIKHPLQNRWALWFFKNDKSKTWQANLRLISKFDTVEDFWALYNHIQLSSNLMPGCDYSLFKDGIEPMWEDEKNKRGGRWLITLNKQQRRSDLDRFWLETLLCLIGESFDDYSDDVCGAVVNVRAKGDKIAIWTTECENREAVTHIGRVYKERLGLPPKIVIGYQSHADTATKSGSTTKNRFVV

For the compound `COCCC(CCOC)N(C)c1ncc2nc(C)n(CC#Cc3ccc(Cl)cc3-c3ccnc4c(C(=O)O)csc34)c(=O)c2c1C#N` [compound 1505], the IC50 under setting [1] is 0.013 µM.

Consider `Cc1nc2cncc(SCCN(C)C)c2c(=O)n1CCOc1ccc(Cl)cc1-c1ccnc2c(C(=O)O)csc12` [compound 1331], for which the IC50 under setting [1] was 0.0918 µM.

For `Cc1nc2c(OC(F)(F)F)ccc(C#N)c2c(=O)n1CCOc1ccc(Cl)cc1-c1ccnc2c(C(=O)O)csc12` [compound 313], the IC50 under setting [2] is less than 0.05 µM and the IC50 under setting [3] was 0.0345 µM.

Regarding `Cc1nc2cnc(N(C)C3(C)CCN(CC(F)F)CC3)c(C#N)c2c(=O)n1CC#Cc1ccc(Cl)cc1-c1ccnc2c(C(=O)O)csc12` [compound 1413], the IC50 under setting [1] was 0.0517 µM.

On to `Cc1cc(-c2cc(Cl)ccc2OCCn2c(C)nc3cc(Cl)c(N4CCCC4=O)c(C#N)c3c2=O)c2scc(C(=O)O)c2n1` [compound 697], for which the IC50 reads like this: under setting [2], less than 0.05 µM; under setting [3], 0.0102 µM.

In the case of `Cc1cc(-c2cc(Cl)ccc2OCCn2c(C)nc3cc(C(F)(F)F)c(-c4cnc(C)nc4C)c(C#N)c3c2=O)c2scc(C(=O)O)c2n1` [compound 437], the IC50 was less than 0.05 µM under setting [2] and 0.00621 µM under setting [3].

As to `Cc1nc2cc(C(F)(F)F)cc(C#N)c2c(=O)n1CCOc1ccc(Cl)cc1-c1nccc2c(C(=O)O)csc12` [compound 225], the IC50 was 0.05 to 1 µM under setting [2] and 0.147 µM under setting [3].

Regarding `Cc1cc(-c2cc(Cl)ccc2OCCn2c(C)nc3c(C)ncc(C#N)c3c2=O)c2scc(C(=O)NS(C)(=O)=O)c2n1` [compound 731], the IC50 by setting is: under setting [2], less than 0.05 µM; under setting [3], 0.00597 µM.

With `C#Cc1sc2c(-c3cc(Cl)ccc3OCCn3c(C)nc4cc(C(F)(F)F)cc(C#N)c4c3=O)ccnc2c1C(=O)O` [compound 267], the IC50 runs as follows: under setting [2], 0.05 to 1 µM; under setting [3], 0.0741 µM.

Consider `CCN(c1ncc2nc(C)n(CC#Cc3ccc(Cl)cc3-c3ccnc4c(C(=O)NS(=O)(=O)c5cccnc5)csc34)c(=O)c2c1C#N)C1CCN(CC(F)(F)C(F)F)CC1` [compound 1709], for which, under setting [1], the IC50 is 0.0284 µM.

On to `Cc1cc(-c2cc(Cl)ccc2OCCn2c(C)nc3c(C)nc(-c4cc(Cl)ccc4F)c(C#N)c3c2=O)c2scc(C(=O)O)c2n1` [compound 997], for which the IC50 by setting is: under setting [2], less than 0.05 µM; under setting [3], 0.0122 µM.

For `Cc1nc2cc(C(F)(F)F)c(OCC(F)(F)F)c(C#N)c2c(=O)n1CCOc1ccc(Cl)cc1-c1ccnc2c(C(=O)O)csc12` [compound 1153], the IC50 is less than 0.05 µM under setting [2] and 0.038 µM under setting [3].

For the compound `Cc1nc2cnc(C3CC3)c(C#N)c2c(=O)n1CCOc1ccc(Cl)cc1-c1cc(CF)nc2c(C(=O)O)csc12` [compound 917], the IC50 was less than 0.05 µM under setting [2] and 0.011 µM under setting [3].

For `Cc1cc(-c2cc(Cl)ccc2OCCn2c(C)nc3cc(C(F)F)c(O)c(C#N)c3c2=O)c2scc(C(=O)O)c2n1` [439b], under setting [3], the IC50 is 0.032 µM.

For `O=C(O)c1cccc(-c2cc(Cl)ccc2OCCn2c(C(F)F)nc3cnc(Cl)cc3c2=O)c1` [compound 2008], under setting [1], the IC50 was 0.0961 µM.

`Cc1nc2cnc(N(C)C3CCN(CC(F)(F)C(F)F)CC3)c(C#N)c2c(=O)n1CC#Cc1ccc(Cl)cc1-c1ccnc2c(C(=O)NS(=O)(=O)C3COC3)csc12` [compound 1704]: the IC50 under setting [1] is 0.00654 µM.

On to `Cc1nc2cc(C(F)(F)F)cc(C#N)c2c(=O)n1CCOc1[nH]c(=O)c(Cl)cc1-c1ccnc2c(C(=O)O)csc12` [compound 356], for which the IC50 was more than 1 µM under setting [2] and 1.22 µM under setting [3].

With `Cc1nc2cnc(N(C)C3CCN(C4CCC4(F)F)CC3)c(C#N)c2c(=O)n1CC#Cc1ccc(Cl)cc1-c1ccnc2c(C(=O)O)csc12` (centres unmarked) [compound 1166], the IC50 was less than 0.05 µM under setting [2] and 0.0286 µM under setting [3].

Regarding `Cc1nc2cc(C(F)(F)F)c(N3CCN(C)CC3)c(C#N)c2c(=O)n1CCSc1ccc(Cl)cc1-c1ccnc2c(C(=O)O)csc12` [compound 1269], the IC50 under setting [1] is 0.0666 µM.

As to `Cc1nc2cc(C(F)(F)F)cc(C#N)c2c(=O)n1CCOc1ccc(Cl)cc1-c1ccc(C(=O)O)c2ncsc12` [compound 226], the IC50 by setting is: under setting [2], 0.05 to 1 µM; under setting [3], 0.0707 µM.

For `Cc1nc2cc(Cl)c(C(F)F)c(C#N)c2c(=O)n1CCOc1ccc(Cl)cc1-c1ccnc2c(C(=O)NS(C)(=O)=O)csc12` [compound 520], the IC50 is less than 0.05 µM under setting [2] and 0.0183 µM under setting [3].

On to `Cc1nc2c(c(C#N)cc3ccccc32)c(=O)n1CCOc1ccc(Cl)cc1-c1ccnc2c(C(=O)O)csc12` [compound 1946], for which, under setting [1], the IC50 is 0.0447 µM.

In the case of `Cc1nc2cc(C(F)(F)F)c(Cl)c(C#N)c2c(=O)n1CCOc1cc(F)c(Cl)cc1-c1ccnc2c(C(=O)O)csc12` [compound 505], the IC50 by setting is: under setting [2], less than 0.05 µM; under setting [3], 0.0436 µM.

As to `Cc1nc2cc(C(F)(F)F)c(OC(F)F)c(C#N)c2c(=O)n1CCOc1ccc(Cl)cc1-c1ccnc2c(C(=O)O)csc12` [compound 549], the IC50 under setting [2] is less than 0.05 µM and the IC50 under setting [3] is 0.0193 µM.

Turning to `CCCc1cc(-c2cc(Cl)ccc2OCCn2c(C)nc3cnc(C4CC4)c(C#N)c3c2=O)c2scc(C(=O)O)c2n1` [compound 1076], the IC50 under setting [2] was less than 0.05 µM and the IC50 under setting [3] was 0.0245 µM.

As for `Cc1nc(N(C)C2CCN(CC(C)(F)F)CC2)c(C#N)c2c(=O)n(CCOc3ccc(Cl)cc3-c3ccnc4c(C(=O)O)csc34)c(C)nc12` [compound 1562], under setting [1], the IC50 was 0.0168 µM.

In the case of `Cc1nc2cc(C(F)(F)F)cc(C#N)c2c(=O)n1C/C=C/c1ccc(Cl)cc1-c1cccc(C(=O)O)c1` [compound 145], the IC50 runs as follows: under setting [2], 0.05 to 1 µM; under setting [3], 0.0959 µM.

On to `Cc1cc(-c2c(Cl)cc3nc(C)n(CCOc4ccc(Cl)cc4-c4cc(C)nc5c(C(=O)O)csc45)c(=O)c3c2C#N)ccn1` [compound 393], for which the IC50 runs as follows: under setting [2], less than 0.05 µM; under setting [3], 0.0118 µM.

On to `Cc1nc2cnc(N(C)C3CCN(CC(F)(F)F)CC3)c(C#N)c2c(=O)n1CC#Cc1ccc(Cl)cc1-c1ccnc2c(C(=O)NS(=O)(=O)CF)csc12` [compound 1669], for which the IC50 under setting [1] is 0.00917 µM.

Take `N#Cc1cccc2c1c(=O)n(CCOc1ccc(Cl)cc1-c1ccnc3c(C(=O)O)csc13)c1ccccc21` [compound 657]: the IC50 by setting is: under setting [2], less than 0.05 µM; under setting [3], 0.0457 µM.

As for `Cc1nc2cnc(N(C)C3CCN(CC(F)(F)CF)CC3)c(C#N)c2c(=O)n1CC#Cc1ccc(Cl)cc1-c1ccnc2c(C(=O)O)csc12` [compound 1134], the IC50 is less than 0.05 µM under setting [2] and 0.0153 µM under setting [3].

With `Cc1nc2cnc(N3CCC4(CC3)CCN4CC(F)F)c(C#N)c2c(=O)n1CC#Cc1ccc(Cl)cc1-c1ccnc2c(C(=O)O)csc12` [compound 1490], the IC50 under setting [1] is 0.0291 µM.

Regarding `Cc1nc2cnc(O)c(C#N)c2c(=O)n1CC#Cc1ccc(Cl)cc1-c1ccnc2c(C(=O)O)csc12` [compound 891], the IC50 is, setting by setting: under setting [2], less than 0.05 µM; under setting [3], 0.0137 µM.

Take `Cc1nc2cc(OC(F)F)c(C(F)(F)F)c(C#N)c2c(=O)n1CCOc1ccc(Cl)cc1-c1ccnc2c(C(=O)O)csc12` [compound 540]: the IC50 was less than 0.05 µM under setting [2] and 0.014 µM under setting [3].

Consider `CC(=O)N1CCN(c2c(C(F)(F)F)cc3nc(C)n(CCOc4ccc(Cl)cc4-c4cccc(C(=O)O)c4)c(=O)c3c2C#N)CC1` [compound 378], for which the IC50 by setting is: under setting [2], less than 0.05 µM; under setting [3], 0.0451 µM.

On to `Cc1nc2cnccc2c(=O)n1CCOc1ccc(Cl)cc1-c1cccc(C(=O)O)c1` [compound 1], for which the IC50 by setting is: under setting [2], 0.05 to 1 µM; under setting [3], 0.281 µM.

In the case of `CCN(c1ncc2nc(C)n(CC#Cc3ccc(Cl)cc3-c3ccnc4c(C(=O)NS(=O)(=O)CC(C)(C)C#N)csc34)c(=O)c2c1C#N)C1CCN(C2COC2)CC1` [compound 1737], under setting [1], the IC50 was 0.0143 µM.

For the compound `Cc1cc(-c2cc(Cl)ccc2OCCn2c(C)nc3cc(C)c(C)c(C#N)c3c2=O)c2scc(C(=O)O)c2n1` [compound 628], the IC50 was less than 0.05 µM under setting [2] and 0.0285 µM under setting [3].

Regarding `Cc1cc(-c2cc(Cl)ccc2OCCn2c(C)nc3nc(C(F)(F)F)c(C)nc3c2=O)c2scc(C(=O)O)c2n1` [compound 760], the IC50 is less than 0.05 µM under setting [2] and 0.00644 µM under setting [3].

In the case of `Cc1nc2cc(C(F)(F)F)cc(C#N)c2c(=O)n1C/C=C/c1ccc(Cl)cc1-c1ccnc2c(C(=O)O)csc12` [compound 255], the IC50 is 0.05 to 1 µM under setting [2] and 0.0785 µM under setting [3].

Consider `Cc1cc(-c2cc(Cl)ccc2OCCn2c(C)nc3cnc(-c4ccccc4F)c(C#N)c3c2=O)c2scc(C(=O)O)c2n1` [compound 941], for which the IC50 runs as follows: under setting [2], less than 0.05 µM; under setting [3], 0.02 µM.

Consider `Cc1nc2cnc(N3CC4(C3)CN(C3CCC3)C4)c(C#N)c2c(=O)n1CCOc1ccc(Cl)cc1-c1ccnc2c(C(=O)NS(C)(=O)=O)csc12` [compound 1512], for which the IC50 under setting [1] was 0.0122 µM.

For `Cc1nc2cc(C(F)(F)F)cc(C#N)c2c(=O)n1CCOc1ccc(Cl)cc1-c1ccnc2c(O)csc12` [compound 663], the IC50 runs as follows: under setting [2], 0.05 to 1 µM; under setting [3], 0.332 µM.

Consider `Cc1nc(N2CCN(C)C3CC32)c(C#N)c2c(=O)n(CC#Cc3ccc(Cl)cc3-c3ccnc4c(C(=O)O)csc34)c(C)nc12` (centres unmarked) [compound 656], for which the IC50 runs as follows: under setting [2], less than 0.05 µM; under setting [3], 0.0334 µM.

Turning to `Cc1cc(-c2cc(Cl)ccc2OCCn2c(C)nc3cc(C(F)(F)F)c(-c4ncccn4)nc3c2=O)c2scc(C(=O)O)c2n1` [compound 765], the IC50 under setting [2] is less than 0.05 µM and the IC50 under setting [3] was 0.00919 µM.

In the case of `Cc1ccc(F)c(-c2ncc3cc(C)n(CCOc4ccc(Cl)cc4-c4cc(C)nc5c(C(=O)O)csc45)c(=O)c3c2C#N)n1` [compound 1000], the IC50 reads like this: under setting [2], less than 0.05 µM; under setting [3], 0.0167 µM.

For `CCN(c1ncc2nc(C)n(CC#Cc3ccc(Cl)cc3-c3ccnc4c(C(=O)O)csc34)c(=O)c2c1C#N)C1CCN(C2CC(F)(F)C2)CC1` [compound 1184], the IC50 is, setting by setting: under setting [2], less than 0.05 µM; under setting [3], 0.00932 µM.

Values taken from patent publication US11286268B1, “EIF4E-inhibiting compounds and methods” (EFFECTOR THERAPEUTICS, INC., priority 2019, dated 2022).
